{"source": "paper PMC10011573", "about": "“Development of novel broad-spectrum antimicrobial lipopeptides derived from plantaricin NC8 β” (Scientific Reports, 2023)", "key": {"[1]": {"system": "S. aureus (ATCC 29213)", "assay_type": "cell-based", "conditions": "ATCC 29213, 20 h"}, "[2]": {"test": "Carboxyfluorescein release assay, mammalian liposome model", "assay_type": "biochemical", "conditions": "65:5:30 POPC:POPS:Chol. liposomes, 25 µM lipid, 10 mM PBS pH 7.4, 10^–5–10^2 µM peptide, 60 min, fluorescence, Hill fit, n = 3; read-out: EC50 Mammalial (concentration that triggers 50% CF release)", "procedure,_shortened": "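CF-loaded extruded 0.1 µm unilamellar liposomes: bacterial POPC:POPG 75:25, mammalian POPC:POPS:Chol 65:5:30. Liposomes at 25 µM lipid in PBS pH 7.4 incubated with peptide (10^–5–10^2 µM; n = 3), fluorescence read every 2.5 min for 1 h. Release normalized to 1% Triton X-100; EC50 from Hill-1 fit.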"}, "[3]": {"system": "P. aeruginosa", "conditions": "20 h"}, "[4]": {"system": "E. cloacae", "conditions": "20 h"}, "[5]": {"system": "E. coli (K-12 MG1655)", "conditions": "Table 3; K-12 MG1655; broth microdilution, 50:50 PBS/LB-broth, 200 µL, 20 h, 37 °C"}, "[6]": {"system": "K. pneumoniae", "conditions": "20 h"}, "[7]": {"system": "E. faecium", "conditions": "20 h"}, "[8]": {"system": "A. baumannii", "conditions": "20 h"}, "[9]": {"system": "S. aureus (ATCC 29213, MSSA)", "conditions": "ATCC 29213, 20 h"}}, "note": "Residues, ends and D or L forms follow the SMILES beside them. *: point of attachment. Pentanoyl = CCCCC(=O)*"}
{"compound": "CCCCC(=O)N[C@@H](CC(C)C)C(=O)NCC(=O)N[C@H](C(=O)N[C@@H](CCCCN)C(=O)N[C@H](C(=O)N[C@@H](CC(C)C)C(=O)N[C@@H](Cc1c[nH]c2ccccc12)C(=O)N[C@@H](CO)C(=O)N[C@@H](C)C(=O)N[C@@H](Cc1ccc(O)cc1)C(=O)N[C@@H](CCCCN)C(=O)N[C@@H](Cc1c[nH]cn1)C(=O)N[C@@H](CCCNC(=N)N)C(=O)N[C@@H](CCCCN)C(=O)N[C@H](C(=O)N[C@H](C(N)=O)[C@@H](C)CC)[C@@H](C)O)[C@@H](C)CC)[C@@H](C)CC", "note": "[L-6-C5] (Pentanoyl-LGIKILWSAYKHRKTI-NH2)", "values": [{"measurement": "S. aureus MBC, lipopeptide alone", "setting": "[1]", "value": 6.25, "unit": "µM"}, {"measurement": "S. aureus MIC, lipopeptide alone", "setting": "[1]", "value": 6.25, "unit": "µM"}, {"measurement": "EC50", "setting": "[2]", "value": 10.5, "unit": "µM"}, {"measurement": "MBC", "setting": "[3]", "value": 100, "unit": "µM"}, {"measurement": "MIC", "setting": "[3]", "value": 50, "unit": "µM"}, {"measurement": "MBC", "setting": "[4]", "value": "> 100", "unit": "µM"}, {"measurement": "MIC", "setting": "[4]", "value": "> 100", "unit": "µM"}, {"measurement": "E. coli MBC", "setting": "[5]", "value": 6.2, "unit": "µM"}, {"measurement": "E. coli MIC", "setting": "[5]", "value": 6.2, "unit": "µM"}, {"measurement": "MBC", "setting": "[6]", "value": 100, "unit": "µM"}, {"measurement": "MIC", "setting": "[6]", "value": 50, "unit": "µM"}, {"measurement": "MBC", "setting": "[7]", "value": 12.5, "unit": "µM"}, {"measurement": "MIC", "setting": "[7]", "value": 6.3, "unit": "µM"}, {"measurement": "MBC", "setting": "[8]", "value": 6.3, "unit": "µM"}, {"measurement": "MIC", "setting": "[8]", "value": 3.1, "unit": "µM"}, {"measurement": "S. aureus MBC", "setting": "[9]", "value": 6.2, "unit": "µM"}, {"measurement": "S. aureus MIC", "setting": "[9]", "value": 6.2, "unit": "µM"}]}
